Source: patent publication EP4023291A1, “FAT METABOLISM PROMOTER” (Asahi Group Holdings, Ltd., priority 2019, dated 2021)

Tests used:
[1] = biological target: T1, TRPA1 (Homo sapiens, UniProt O75762); assay: Test 9: TRPA1 activity test, cells with forced expression of TRPA1; type: cell-based; conditions: for Δ RFU in cells with forced expression of TRPA1: maximum values, average ± standard deviation, concentration after adding per Table 7 (10.2-28.2 ppm); for Δ RFU in cells with forced expression of TRPA1 / Δ RFU in non-transformed cells: ratio of maximum ΔRFU values, concentration after adding per Table 7
T1 construct: expressed in transfected cells; host or cells: HEK293T cells, transient transfection with Lipofectamine 2000
T1 sequence (O75762 whole entry): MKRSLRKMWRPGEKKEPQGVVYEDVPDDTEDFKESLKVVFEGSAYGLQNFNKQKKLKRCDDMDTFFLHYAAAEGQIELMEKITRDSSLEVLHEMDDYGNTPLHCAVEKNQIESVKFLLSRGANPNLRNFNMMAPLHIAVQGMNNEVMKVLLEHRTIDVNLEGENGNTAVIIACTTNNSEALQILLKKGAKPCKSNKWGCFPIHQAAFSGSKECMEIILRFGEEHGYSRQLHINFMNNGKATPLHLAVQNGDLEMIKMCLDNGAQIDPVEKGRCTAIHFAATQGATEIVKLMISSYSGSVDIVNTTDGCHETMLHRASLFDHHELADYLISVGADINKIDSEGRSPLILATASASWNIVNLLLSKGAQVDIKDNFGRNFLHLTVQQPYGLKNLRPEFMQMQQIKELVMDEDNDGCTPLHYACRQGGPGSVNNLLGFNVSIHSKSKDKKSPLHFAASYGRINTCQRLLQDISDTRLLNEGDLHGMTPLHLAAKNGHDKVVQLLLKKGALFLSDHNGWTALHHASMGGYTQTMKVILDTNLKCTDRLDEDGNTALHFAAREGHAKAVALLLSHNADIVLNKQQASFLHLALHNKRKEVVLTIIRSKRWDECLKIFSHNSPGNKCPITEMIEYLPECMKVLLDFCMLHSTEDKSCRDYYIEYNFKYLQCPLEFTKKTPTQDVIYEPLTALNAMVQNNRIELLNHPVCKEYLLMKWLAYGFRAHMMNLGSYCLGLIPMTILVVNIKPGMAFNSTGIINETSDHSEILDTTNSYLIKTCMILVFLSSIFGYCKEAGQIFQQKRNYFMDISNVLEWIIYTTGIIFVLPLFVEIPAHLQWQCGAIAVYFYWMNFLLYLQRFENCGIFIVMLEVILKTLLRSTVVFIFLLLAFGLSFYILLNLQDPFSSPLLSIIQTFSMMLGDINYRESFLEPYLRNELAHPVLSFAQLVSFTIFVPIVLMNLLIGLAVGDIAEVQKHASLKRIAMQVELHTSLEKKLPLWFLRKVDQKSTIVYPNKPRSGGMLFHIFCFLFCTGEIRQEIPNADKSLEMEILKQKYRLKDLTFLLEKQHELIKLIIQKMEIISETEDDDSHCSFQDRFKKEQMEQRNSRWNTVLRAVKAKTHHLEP
Procedure: In the present test, first, human embryonic HEK293T cells were first suspended in DMEM medium to which penicillin-streptomycin (manufactured by Thermo Fisher Scientific, Inc.) and fetal bovine serum (manufactured by Sigma-Aldrich Co. LLC) were added to reach concentrations of 100 Unit/mL, 100 µg/mL, and 10%, respectively, seeded in a 96-well plate at a volume of 100 µL/well, and cultured under conditions of 5% CO2 and 37°C until a cell density reached 70 to 90%.
Thereafter, the DMEM medium in each well was completely removed, to which OptiMEM medium (manufactured by Thermo Fisher Scientific, Inc.) containing the gene transfer reagent Lipofectamine 2000 (manufactured by Thermo Fisher Scientific, Inc.) and a hTRPA1 gene expression plasmid was added at a volume of 50 µL/well. Then, culture was performed under conditions of 37°C and 5% CO2 for approximately 24 hours to transfer the TRPA1 gene into the HEK293T cells. The contents of Lipofectamine 2000 and the hTRPA1 gene expression plasmid per 50 µL of the OptiMEM medium were 0.3 µL and 400 ng, respectively. The TRPA1 gene can be confirmed with a DNA database such as GenBank.
When the density of the HEK293T cells transfected in the described manner (hereinafter, also referred to as "cells with forced expression of TRPA1") reached 90 to 100%, FLIPR Calcium 6 Assay Kit (manufactured by Molecular Devices, LLC.), a calcium-sensitive fluorescent dye, was added at a volume of 50 µL/well, and culture was performed under conditions of 37°C and 5% CO2 for 2 hours. Here, the expression of TRPA1 on cell membranes was confirmed by response to cinnamaldehyde (manufactured by Wako Pure Chemical Industries, Ltd.), which is a known TRPA1 ligand. DMSO was used for dilution of cinnamaldehyde, and the DMSO concentration in each well was set to 0.1% in view of cytotoxicity.
Ethyl caproate was added to HEPES buffer (10 mM HEPES, 130 mM NaCl, 5 mM KCl, 10 mM glucose, 2 mM CaCl2·2H2O, 1.2 mM MgCl2·6H2O, pH = 7.40), and thus a test solution of Example 9 containing ethyl caproate in a concentration of 255 ppm was obtained. For a negative control (N.C.), HEPES buffer was used as a test solution of Comparative Example 6. Measurement of fluorescence intensity for the cells with forced expression of TRPA1 was initiated, and, 20 seconds thereafter, 50-µL portions of each of the test solutions prepared were added to three wells. After the lapse of a predetermined period of time, the measurement of fluorescence intensity was completed, and ratios of fluorescence intensity at each time after addition of a test solution as the average of fluorescence intensity before addition of a test solution was assumed as 1 (hereinafter, also referred to as "RFU (relative fluorescence units)") were determined from measurements of fluorescence intensity. Further, change rates in RFU before and after addition of a test solution (hereinafter, also referred to as "ΔRFU") were determined at each time after addition of a test solution. Fluorescence intensity was measured by using a FlexStation 3 (manufactured by Molecular Devices, LLC.). The measurement of fluorescence intensity was performed at room temperature, and each test solution was used for adding to wells at room temperature, too.
(§1) In the present test, test solutions of Examples 13 to 28 and Comparative Examples 9 to 14 described later were used in place of the test solutions used in First Testing Method of Test 5. Except that, the amount of change in RFU before and after addition of each test solution (ΔRFU) was determined for cells with forced expression of TRPA1 and non-transformed cells with the same method as First Testing Method of Test 5.
The test solutions of Examples 13 to 28 and Comparative Examples 10 to 14 used in the present test were each obtained by adding a compound listed in Table 7 into HEPES buffer. […]

[2] = tested on: non-transformed cells; assay: Test 9: TRPA1 activity test, non-transformed cells; type: cell-based, human; conditions: maximum values, average ± standard deviation; concentration after adding per Table 7 (10.2-28.2 ppm)
Procedure: Also for HEK293T cells without transfer of the TRPA1 gene (hereinafter, also referred to as "non-transformed cells"), as a reference, 50 µL of the test solution of Example 9 and 50 µL of the test solution of Comparative Example 6 were added with the same method as performed for the cells with forced expression of TRPA1, and ΔRFU was determined.
as §1
The test solutions of Examples 13 to 28 and Comparative Examples 10 to 14 used in the present test were each obtained by adding a compound listed in Table 7 into HEPES buffer. The octanol/water partition coefficient (log Pow) of each compound listed in Table 7 was calculated with XlogP (Shanghai Institute of Organic Chemistry, Chinese Academy of Sciences, http://WWW.sio-ccbg.ac.cn/software/xlogp3/), which is software using the XlogP3 algorithm. Each test solution was added as 50-µL portions to wells, and the concentrations of the compounds were set to concentrations shown in Table 7. HEPES buffer was used as the test solution of Comparative Example 9 for a negative control (N.C.), and added as 50-µL portions to wells.
Table 7 and Figure 18 show average ± standard deviation of maximum values of ΔRFU. In the present test, SoftMax Pro Vr. 6 (manufactured by Molecular Devices, LLC.) and Excel (manufactured by Microsoft Corporation) were used for data analysis.

Structure (SMILES): CCCCCOC(C)=O [Example 14, Pentyl acetate]
- Δ RFU in cells with forced expression of TRPA1 [1]: 0.8 ± 0.1
- Δ RFU in cells with forced expression of TRPA1 / Δ RFU in non-transformed cells [1]: 12.1
- Δ RFU in non-transformed cells [2]: 0.1 ± 0.0

Structure (SMILES): CCCCCC(=O)OCCCC [Example 24, Butyl caproate]
- Δ RFU in cells with forced expression of TRPA1 [1]: 4.1 ± 0.3
- Δ RFU in cells with forced expression of TRPA1 / Δ RFU in non-transformed cells [1]: 29.1
- Δ RFU in non-transformed cells [2]: 0.1 ± 0.0

Structure (SMILES): CCC(C)COC(C)=O (stereo not drawn) [Example 15, 2-Methylbutyl acetate]
- Δ RFU in cells with forced expression of TRPA1 [1]: 0.6 ± 0.0
- Δ RFU in cells with forced expression of TRPA1 / Δ RFU in non-transformed cells [1]: 2.9
- Δ RFU in non-transformed cells [2]: 0.2 ± 0.0

Structure (SMILES): CCCCCCCCCCCC(=O)OCC [Comparative Example 14, Ethyl laurate, reference compound]
- Δ RFU in cells with forced expression of TRPA1 [1]: 0.2 ± 0.0
- Δ RFU in cells with forced expression of TRPA1 / Δ RFU in non-transformed cells [1]: 0.8
- Δ RFU in non-transformed cells [2]: 0.2 ± 0.0

Structure (SMILES): CCCCCC(=O)OCC [Example 22, Ethyl caproate]
- Δ RFU in cells with forced expression of TRPA1 [1]: 2.2 ± 0.8
- Δ RFU in cells with forced expression of TRPA1 / Δ RFU in non-transformed cells [1]: 12.7
- Δ RFU in non-transformed cells [2]: 0.2 ± 0.0

Structure (SMILES): CCCCC(=O)OCC [Example 19, Ethyl valerate]
- Δ RFU in cells with forced expression of TRPA1 [1]: 0.6 ± 0.1
- Δ RFU in cells with forced expression of TRPA1 / Δ RFU in non-transformed cells [1]: 5.6
- Δ RFU in non-transformed cells [2]: 0.1 ± 0.0

Structure (SMILES): CCCCCOC(=O)CCCCC [Example 26, Pentyl caproate]
- Δ RFU in cells with forced expression of TRPA1 [1]: 3.5 ± 1.1
- Δ RFU in cells with forced expression of TRPA1 / Δ RFU in non-transformed cells [1]: 12.8
- Δ RFU in non-transformed cells [2]: 0.3 ± 0.1

Structure (SMILES): CCOC(=O)CCC(C)C [Example 20, Ethyl 4-methylvalerate]
- Δ RFU in cells with forced expression of TRPA1 [1]: 2.0 ± 0.1
- Δ RFU in cells with forced expression of TRPA1 / Δ RFU in non-transformed cells [1]: 27.6
- Δ RFU in non-transformed cells [2]: 0.1 ± 0.0

Structure (SMILES): CCCCCCCOC(C)=O [Example 16, Heptyl acetate]
- Δ RFU in cells with forced expression of TRPA1 [1]: 3.5 ± 0.7
- Δ RFU in cells with forced expression of TRPA1 / Δ RFU in non-transformed cells [1]: 127.8
- Δ RFU in non-transformed cells [2]: 0.0 ± 0.0

Structure (SMILES): CCOC(=O)CC [Comparative Example 12, Ethyl propionate, reference compound]
- Δ RFU in cells with forced expression of TRPA1 [1]: 0.3 ± 0.0
- Δ RFU in cells with forced expression of TRPA1 / Δ RFU in non-transformed cells [1]: 0.9
- Δ RFU in non-transformed cells [2]: 0.3 ± 0.1

Structure (SMILES): CC(=O)OCCC(C)C [Example 13, Isoamyl acetate]
- Δ RFU in cells with forced expression of TRPA1 [1]: 0.7 ± 0.0
- Δ RFU in cells with forced expression of TRPA1 / Δ RFU in non-transformed cells [1]: 3.4
- Δ RFU in non-transformed cells [2]: 0.2 ± 0.0

Structure (SMILES): CCCCCC(=O)OC [Example 21, Methyl caproate]
- Δ RFU in cells with forced expression of TRPA1 [1]: 1.2 ± 0.2
- Δ RFU in cells with forced expression of TRPA1 / Δ RFU in non-transformed cells [1]: 5.4
- Δ RFU in non-transformed cells [2]: 0.2 ± 0.0

Structure (SMILES): CCCC(=O)OCCC(C)C [Example 18, Isoamyl butyrate]
- Δ RFU in cells with forced expression of TRPA1 [1]: 2.0 ± 0.4
- Δ RFU in cells with forced expression of TRPA1 / Δ RFU in non-transformed cells [1]: 19.3
- Δ RFU in non-transformed cells [2]: 0.1 ± 0.0

Structure (SMILES): CCOC(C)=O [Comparative Example 10, Ethyl acetate, reference compound]
- Δ RFU in cells with forced expression of TRPA1 [1]: 0.2 ± 0.1
- Δ RFU in cells with forced expression of TRPA1 / Δ RFU in non-transformed cells [1]: 0.7
- Δ RFU in non-transformed cells [2]: 0.3 ± 0.0

Structure (SMILES): CCCCCC(=O)OCCC(C)C [Example 25, Isoamyl caproate]
- Δ RFU in cells with forced expression of TRPA1 [1]: 3.0 ± 0.2
- Δ RFU in cells with forced expression of TRPA1 / Δ RFU in non-transformed cells [1]: 16.2
- Δ RFU in non-transformed cells [2]: 0.2 ± 0.0

Structure (SMILES): CCCCCCCC(=O)OCC [Example 28, Ethyl caprylate]
- Δ RFU in cells with forced expression of TRPA1 [1]: 2.3 ± 0.4
- Δ RFU in cells with forced expression of TRPA1 / Δ RFU in non-transformed cells [1]: 19.0
- Δ RFU in non-transformed cells [2]: 0.1 ± 0.0

Structure (SMILES): CCCCCCCC(=O)OCCC(C)C [Comparative Example 13, Isoamyl caprylate, reference compound]
- Δ RFU in cells with forced expression of TRPA1 [1]: 0.2 ± 0.1
- Δ RFU in cells with forced expression of TRPA1 / Δ RFU in non-transformed cells [1]: 0.6
- Δ RFU in non-transformed cells [2]: 0.3 ± 0.0

Structure (SMILES): CCCCCC(=O)OCCC [Example 23, Propyl caproate]
- Δ RFU in cells with forced expression of TRPA1 [1]: 2.7 ± 1.1
- Δ RFU in cells with forced expression of TRPA1 / Δ RFU in non-transformed cells [1]: 12.9
- Δ RFU in non-transformed cells [2]: 0.2 ± 0.0

Structure (SMILES): CCCOC(C)=O [Comparative Example 11, Propyl acetate, reference compound]
- Δ RFU in cells with forced expression of TRPA1 [1]: 0.2 ± 0.0
- Δ RFU in cells with forced expression of TRPA1 / Δ RFU in non-transformed cells [1]: 0.8
- Δ RFU in non-transformed cells [2]: 0.3 ± 0.0

Structure (SMILES): CCC(=O)OCCC(C)C [Example 17, Isoamyl propionate]
- Δ RFU in cells with forced expression of TRPA1 [1]: 1.5 ± 0.5
- Δ RFU in cells with forced expression of TRPA1 / Δ RFU in non-transformed cells [1]: 12.4
- Δ RFU in non-transformed cells [2]: 0.1 ± 0.0

Structure (SMILES): CCCCCCCC(=O)OC [Example 27, Methyl caprylate]
- Δ RFU in cells with forced expression of TRPA1 [1]: 0.7 ± 0.1
- Δ RFU in cells with forced expression of TRPA1 / Δ RFU in non-transformed cells [1]: 8.3
- Δ RFU in non-transformed cells [2]: 0.1 ± 0.0
